From article PMC11741006, “Raman active diyne-girder conformationally constrained p53 stapled peptides bind to MDM2 for visualisation without fluorophores” (RSC Chemical Biology, 2025)
Residues, ends and D or L forms follow the SMILES beside them. *: point of attachment. FITC = O=C1OC2(c3ccc(O)cc3Oc3cc(O)ccc32)c2ccc(NC(=S)*)cc21; Ahx = NCCCCCC(=O)O

Legend:
MDMX (1–134) = biological target: T1, MDMX (1–134) (Homo sapiens, UniProt O15151); test: Fluorescence polarisation direct binding assay, MDMX; details: direct FP binding; 10 nM FITC peptide in Tris buffer pH 7.6; protein serially diluted 10 μM to 9 pM; 3 h, room temperature; quadratic ligand depletion fit; n = 3
T1 construct: tested against MDMX (1–134); His6-GST (TEV-cleavable) (N, cleaved yes); made in house; host or cells: E. coli Rosetta 2(DE3)pLysS
T1 sequence (O15151 1-134): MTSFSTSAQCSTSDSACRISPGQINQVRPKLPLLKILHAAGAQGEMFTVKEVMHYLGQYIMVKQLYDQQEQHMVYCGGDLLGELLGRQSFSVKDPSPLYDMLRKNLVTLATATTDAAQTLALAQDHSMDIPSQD
Experimental: The binding properties of the peptide were assessed using a biophysical FP assay. Specifically, a direct binding assay was conducted to calculate the Kd values of the fluorescent peptide ligands binding to the target proteins (eqn (S3), ESI ^†).[29] […] The peptides were first tested for binding with MDM2 (1–138). […] Peptide solutions were made up to a concentration of 10 nM and varying concentrations of protein (10 μM to 9 pM) were incubated with the peptide with FP measurements taken after 3 h (Fig. 4). […] The final analogue examined for its binding of MDM2 was 5FITC, the diyne negative control. […]
resuspension buffer. […]
The His6-GST -tagged proteins were then cleaved with TEV while dialyzing into 330 mM NaCl, PBS, 5 mM BME for 20 hours at 4 °C. […] Protein concentration was measured at an absorbance of 595 nm with the Bio-rad Protein Assay Kit II using bovine serum albumin as a standard. […]
Fluorescence Polarisation Binding Assay
The binding properties of the peptides were assessed using a biophysical FP assay. […] All FP measurements were performed on a microplate reader (CLARIOstar) in black 384-well microplates with 20 μL of sample solution per well. […]
was added and serially diluted from 10 μM to 9 pM. […] Plates were placed in a PerkinElmer Victor X5 plate reader with excitation measured at 531 nm and emission measured at 595 nm. […]

MDM2 (1–138) = biological target: T2, MDM2 (1–138) (Homo sapiens, UniProt Q00987); test: Fluorescence polarisation direct binding assay, MDM2; details: direct FP binding; 10 nM FITC peptide in Tris buffer pH 7.6; protein serially diluted 10 μM to 9 pM; 3 h, room temperature; quadratic ligand depletion fit; n = 3
T2 construct: His6-GST (TEV-cleavable) (N, cleaved yes); made in house; host or cells: E. coli Rosetta 2(DE3)pLacI
Experimental: The binding properties of the peptides were assessed using a biophysical FP assay. Specifically, a direct binding assay was conducted to calculate the Kd values of the fluorescent peptide ligands binding to the target proteins. Fluorescently labelled peptides were tested for binding to MDM2 (1-138) and MDMX (1-134). […] All FP measurements were performed on a microplate reader (CLARIOstar) in black 384-well microplates with 20 μL of sample solution per well.
was added and serially diluted from 10 μM to 9 pM. Peptide (10 nM in Tris buffer pH 7.6) was then added to all wells and mixed. The sample were left to incubate at room temperature for 3 hours. Plates were placed in a PerkinElmer Victor X5 plate reader with excitation measured at 531 nm and emission measured at 595 nm. The raw data was normalized using baseline correction, where the baseline was defined as the fluorescence polarisation measured in the absence of peptide. Normalised data were then plotted in Prism 7.0 and fitted by using the quadratic ligand depletion model (Equation S3).
Y is the fluorescent polarisation signal measured at each datapoint. […]

[1] = Circular dichroism spectroscopy, percentage helicity; assay type: physicochemical; details: CD in PBS pH 7.4, room temperature; from MRE at 222 nm, equations of Luo and Baldwin; peptides analysed at 25 μM and 50 μM
Experimental: Following the successful synthesis of the diyne peptide 4, it was important to identify the effect of the modified staple on the α-helical nature of the peptide. The effectiveness of the diyne staple as an α-helical constraint was assessed by CD. Experiments were set out to directly compare the diyne stapled peptide 4 to the alkene stapled peptides (cis-2 and trans-3), with the linear peptide 1 employed as a control. CD was performed at two concentrations to investigate whether peptide concentration influenced helicity, as coiled-coil structures are known to increase helicity.[25] Peptide concentrations were quantified using a NanoDrop™ One Microvolume UV-Vis spectrophotometer using the UV absorption of the peptides at 280 nm.[26] Extinction coefficients of the peptides were calculated from Trp and Tyr residues and the Beer–Lambert law employed to calculate the concentrations.
Each of the peptides (1–4) were analysed at 25 μM and 50 μM in phosphate buffered saline (PBS, pH 7.4) (Fig. 3). CD spectra were measured from 190–260 nm and the characteristic α-helical negative maxima examined for their intensity at 208 nm and 222 nm.[27] […] This is to be expected due to the random coil nature of 1. […] Helicity calculations were performed following conversion of the measured degrees of ellipticity (θ) data to mean residue ellipticity (MRE) (eqn (S1), ESI ^†). […]
Cell Permeability Fluorescence Assay […]

T2 sequence (Q00987 1-138): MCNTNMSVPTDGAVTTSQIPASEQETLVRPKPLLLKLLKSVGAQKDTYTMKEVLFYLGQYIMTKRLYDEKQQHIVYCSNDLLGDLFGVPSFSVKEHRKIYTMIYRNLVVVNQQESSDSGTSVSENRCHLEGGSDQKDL

Row | percentage helicity [1] [%] | Compound | further results
1 | – | CC(C)C[C@H](NC(=O)CCCCCNC(=S)Nc1ccc2c(c1)C(=O)OC21c2ccc(O)cc2Oc2cc(O)ccc21)C(=O)N[C@H](C(=O)N[C@@H](Cc1ccccc1)C(=O)N[C@@H](CCC(=O)O)C(=O)N[C@@H](Cc1c[nH]cn1)C(=O)N[C@@H](Cc1ccc(O)cc1)C(=O)N[C@@H](Cc1c[nH]c2ccccc12)C(=O)N[C@@H](C)C(=O)N[C@@H](CCC(N)=O)C(=O)N[C@@H](CC(C)C)C(=O)N[C@H](C(=O)N[C@@H](CO)C(N)=O)[C@@H](C)O)[C@@H](C)O [1FITC] ({FITC-Ahx}-LTFEHYWAQLTS-NH2) | Kd (MDMX (1–134)): 20.1 ± 0.23 nM
2 | – | CC(C)C[C@H](NC(=O)CCCCCNC(=S)Nc1ccc2c(c1)C(=O)OC21c2ccc(O)cc2Oc2cc(O)ccc21)C(=O)N[C@H](C(=O)N[C@@H](Cc1ccccc1)C(=O)N[C@@]1(C)CCCCCC#CC#CCCCCC[C@@](C)(C(=O)N[C@@H](CO)C(=O)N[C@@H](C)C(=O)N[C@@H](C)C(N)=O)NC(=O)[C@H](CC2CCC2)NC(=O)[C@H](CCC(N)=O)NC(=O)[C@H](C)NC(=O)[C@H](Cc2c[nH]c3ccccc23)NC(=O)[C@H](Cc2ccc(O)cc2)NC(=O)[C@H](CCC(=O)O)NC1=O)[C@@H](C)O [4FITC] | Kd (MDM2 (1–138)): 1.39 ± 0.08 nM
3 | 48 | Ac-LTFR8EYWAQ(Cba)S5SAA-NH2 (sidechain bridge or staple) [compound 2, i, i + 7 alkene stapled peptide ATSP-7041 (2/3), cis-isomer, acetylated] | –
4 | 59 | Ac-LTFS7EYWAQ(Cba)S7SAA-NH2 (sidechain bridge or staple) [compound 4, i, i + 7 diyne-girder stapled peptide analogue of ATSP-7041, acetylated] | –
